Laboratory results: US20100286424A1 (priority 2007, published 2010)

How the values were obtained:
cell growth = format: cell-based
mouse = settings: in vivo, po; cited from earlier work

Molecule	IC50 (cell growth)	LD50 (mouse)
Arsenious acid	10 µM	
Arsenic acid	100 µM	
C[As+](C)(C)CC(=O)[O-] [AB, arsenobetaine]		10,000 mg/kg
